Results on 30 compounds are retold here after patent US8188094B2, “Inhibitors of glutaminyl cyclase” (Probiodrug AG, priority 2007, dated 2012).

For the experiment, the target named is glutaminyl cyclase (QC) (Homo sapiens, UniProt Q16769). In words: QC inhibitor assay (fluorometric / spectrophotometric QC activity assays). It counts as biochemical. The settings on record: QC inhibition, 30° C.; for Ki: progress curves fitted to the general equation for competitive inhibition. The procedure: All measurements were performed with a BioAssay Reader HTS-7000Plus for microplates (Perkin Elmer) at 30° C. QC activity was evaluated fluorometrically using H-Gln-βNA. The samples consisted of 0.2 mM fluorogenic substrate, 0.25 U pyroglutamyl aminopeptidase (Unizyme, Hørsholm, Denmark) in 0.2 M Tris/HCl, pH 8.0 containing 20 mM EDTA and an appropriately diluted aliquot of QC in a final volume of 250 μl. Excitation/emission wavelengths were 320/410 nm. The assay reactions were initiated by addition of glutaminyl cyclase. QC activity was determined from a standard curve of β-naphthylamine under assay conditions. One unit is defined as the amount of QC catalyzing the formation of 1 μmol pGlu-βNA from H-Gln-βNA per minute under the described conditions.
glutaminyl cyclase (QC), sequence (Q16769 29-361): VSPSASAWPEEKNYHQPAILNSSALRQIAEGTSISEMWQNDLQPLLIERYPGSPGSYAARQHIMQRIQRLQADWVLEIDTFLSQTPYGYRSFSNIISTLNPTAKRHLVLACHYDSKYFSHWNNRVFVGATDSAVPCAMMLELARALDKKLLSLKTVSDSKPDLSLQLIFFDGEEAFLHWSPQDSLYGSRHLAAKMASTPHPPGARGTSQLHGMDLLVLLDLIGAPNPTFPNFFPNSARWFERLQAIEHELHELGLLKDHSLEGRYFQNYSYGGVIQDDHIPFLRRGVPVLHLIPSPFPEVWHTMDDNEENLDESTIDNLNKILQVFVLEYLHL
In a second fluorometric assay, QC was activity determined using H-Gln-AMC as substrate. Reactions were carried out at 30° C. utilizing the NOVOStar reader for microplates (BMG labtechnologies). The samples consisted of varying concentrations of the fluorogenic substrate, 0.1 U pyroglutamyl aminopeptidase (Qiagen) in 0.05 M Tris/HCl, pH 8.0 containing 5 mM EDTA and an appropriately diluted aliquot of QC in a final volume of 250 μl. Excitation/emission wavelengths were 380/460 nm. The assay reactions were initiated by addition of glutaminyl cyclase. QC activity was determined from a standard curve of 7-amino-4-methylcoumarin under assay conditions. The kinetic data were evaluated using GraFit software.
This novel assay was used to determine the kinetic parameters for most of the QC substrates. QC activity was analyzed spectrophotometrically using a continuous method, that was derived by adapting a previous discontinuous assay (Bateman, R. C. J. 1989 J Neurosci Methods 30, 23-28) utilizing glutamate dehydrogenase as auxiliary enzyme. Samples consisted of the respective QC substrate, 0.3 mM NADH, 14 mM α-Ketoglutaric acid and 30 U/ml glutamate dehydrogenase in a final volume of 250 μl. Reactions were started by addition of QC and persued by monitoring of the decrease in absorbance at 340 nm for 8-15 min.
The initial velocities were evaluated and the enzymatic activity was determined from a standard curve of ammonia under assay conditions. All samples were measured at 30° C., using either the SPECTRAFluor Plus or the Sunrise (both from TECAN) reader for microplates. Kinetic data was evaluated using GraFit software.
For inhibitor testing, the sample composition was the same as described above, except of the putative inhibitory compound added. For a rapid test of QC-inhibition, samples contained 4 mM of the respective inhibitor and a substrate concentration at 1 KM. For detailed investigations of the inhibition and determination of Ki-values, influence of the inhibitor on the auxiliary enzymes was investigated first. In every case, there was no influence on either enzyme detected, thus enabling the reliable determination of the QC inhibition. The inhibitory constant was evaluated by fitting the set of progress curves to the general equation for competitive inhibition using GraFit software.

Consider `COc1ccccc1-c1cc(NCCCn2ccnc2)nc(-c2ccccc2)n1` [Example 11, N-(3-(1H-imidazol-1-yl)propyl)-6-(2-methoxyphenyl)-2-phenylpyrimidin-4-amine], for which half-maximal inhibition (IC50) was put at 22.6 µM.

With `c1ccc(-c2cc(NCCCn3ccnc3)nc(-c3ccccc3)n2)cc1` [Example 2, N-(3-(1H-imidazol-1-yl)propyl)-2,6-diphenylpyrimidin-4-amin], inhibition was half-maximal at 49.8 µM (IC50) and the affinity corresponds to a Ki of 3.9 µM.

On to `c1ccc2c(c1)CC(c1cc(NCCCn3ccnc3)nc(-c3ccncc3)n1)C2` [Example 36, N-(3-(1H-imidazol-1-yl)propyl)-6-(2,3-dihydro-1H-inden-2-yl)-2-(pyridin-4-yl)-pyrimidin-4-amine], for which the IC50 worked out at 26.8 µM and the affinity corresponds to a Ki of 3.52 µM.

On to `Cc1nc(NCCCn2ccnc2)cc(-c2cc(C(F)(F)F)cc(C(F)(F)F)c2)n1` [Example 6, N-(3-(1H-imidazol-1-yl)propyl)-6-(3,5-bis(trifluoromethyl)phenyl)-2-methyl-pyrimidin-4-amine], for which 14.7 µM corresponded to half-maximal inhibition (IC50) and the affinity, expressed as Ki, was 4.69 µM.

For `COc1cccc(-c2cc(NCCCn3ccnc3)nc(-c3ccncc3)n2)c1` [Example 27, N-(3-(1H-imidazol-1-yl)propyl)-6-(3-methoxyphenyl)-2-(pyridin-4-yl)pyrimidin-4-amine], the IC50 was 19 µM.

`FC(F)(F)c1cc(-c2cc(NCCCn3ccnc3)nc(-c3ccccc3)n2)cc(C(F)(F)F)c1` [Example 7, N-(3-(1H-imidazol-1-yl)propyl)-6-(3,5-bis(trifluoromethyl)phenyl)-2-phenyl-pyrimidin-4-amine] had an IC50 of 91.1 µM.

`COc1cc(-c2cc(NCCCn3ccnc3)nc(-c3ccccc3)n2)cc(OC)c1OC` [Example 8, N-(3-(1H-imidazol-1-yl)propyl)-6-(3,4,5-trimethoxyphenyl)-2-phenylpyrimidin-4-amine]: the 50% inhibitory concentration (IC50) was determined as 7.08 µM and the affinity corresponds to a Ki of 1.16 µM.

In turn, `COc1cc(-c2cc(NCCCn3ccnc3)nc(C)n2)cc(OC)c1OC` [Example 20, N-(3-(1H-imidazol-1-yl)propyl)-6-(3,4,5-trimethoxy-phenyl)-2-methyl-pyrimidin-4-amine] yielded an IC50 of 6.43 µM and a Ki of 0.72 µM.

Compound `COc1cccc(-c2cc(NCCCn3ccnc3)nc(C)n2)c1` [Example 19, N-(3-(1H-imidazol-1-yl)propyl)-6-(3-methoxyphenyl)-2-methylpyrimidin-4-amine] returned an IC50 of 20.9 µM and an inhibition constant Ki of 2.7 µM.

Consider `c1cc(-c2nc(NCCCn3ccnc3)cc(-c3ccoc3)n2)ccn1` [Example 17, N-(3-(1H-imidazol-1-yl)propyl)-6-(furan-3-yl)-2-(pyridin-4-yl)pyrimidin-4-amine], for which the 50% inhibitory concentration (IC50) was 27.3 µM and affinity was put at a Ki of 3.7 µM.

On to `COc1ccc(-c2cc(NCCCn3ccnc3)nc(C)n2)cc1` [Example 21, N-(3-(1H-imidazol-1-yl)propyl)-6-(4-methoxyphenyl)-2-methylpyrimidin-4-amine], for which the midpoint of inhibition, the IC50, lay at 18.5 µM and the affinity, expressed as Ki, was 2.26 µM.

`Cc1cc(NCCCn2ccnc2)nc(C)n1` [Example 4, N-(3-(1H-imidazol-1-yl)propyl)-2,6-dimethylpyrimidin-4-amine]: inhibition was half-maximal at 30.3 µM (IC50) and the Ki worked out at 9.31 µM.

In turn, `Cc1nc(NCCCn2ccnc2)cc(C2Cc3ccccc3C2)n1` [Example 34, N-(3-(1H-imidazol-1-yl)propyl)-6-(2,3-dihydro-1H-inden-2-yl)-2-methyl-pyrimidin-4-amine] had an IC50 of 48.3 µM and a Ki of 6.82 µM.

Turning to `COc1ccccc1-c1cc(NCCCn2ccnc2)nc(C)n1` [Example 22, N-(3-(1H-imidazol-1-yl)propyl)-6-(2-methoxyphenyl)-2-methylpyrimidin-4-amine], the concentration for half-maximal inhibition (IC50) came out at 19.3 µM and the affinity, expressed as Ki, was 2.16 µM.

As for `c1ccc(-c2nc(NCCCn3ccnc3)cc(-c3ccoc3)n2)cc1` [Example 13, N-(3-(1H-imidazol-1-yl)propyl)-6-(furan-3-yl)-2-phenylpyrimidin-4-amine], the IC50 came to 40.3 µM and affinity was put at a Ki of 14.9 µM.

`c1ccc(C2CC2c2cc(NCCCn3ccnc3)nc(-c3ccncc3)n2)cc1` (stereo not drawn) [Example 33, N-(3-(1H-imidazol-1-yl)propyl)-6-(2-phenylcyclopropyl)-2-(pyridin-4-yl)-pyrimidin-4-amine] yielded an IC50 of 26.5 µM and a Ki of 3.06 µM.

`FC(F)(F)c1cc(NCCCn2ccnc2)nc(-c2ccncc2)n1` [Example 18, N-(3-(1H-imidazol-1-yl)propyl)-6-(trifluoromethyl)-2-(pyridin-4-yl)pyrimidin-4-amine] displayed an IC50 of 36.8 µM and a Ki of 4.19 µM.

Regarding `COc1ccccc1-c1cc(NCCCn2cncc2C)nc(-c2ccncc2)n1` [Example 28, 6-(2-Methoxyphenyl)-N-(3-(5-methyl-1H-imidazol-1-yl)propyl)-2-(pyridin-4-yl)pyrimidin-4-amine], the concentration for half-maximal inhibition (IC50) worked out at 1.09 µM and the affinity, expressed as Ki, was 0.281 µM.

Turning to `COc1cccc(-c2cc(NCCCn3ccnc3)nc(-c3ccccc3)n2)c1` [Example 12, N-(3-(1H-imidazol-1-yl)propyl)-6-(3-methoxyphenyl)-2-phenylpyrimidin-4-amine], the IC50 was 9.37 µM and the inhibitory constant (Ki) is 3.75 µM.

In the case of `O=[N+]([O-])c1ccc(-c2cc(NCCCn3ccnc3)nc(-c3ccncc3)n2)cc1` [Example 24, N-(3-(1H-imidazol-1-yl)propyl)-6-(4-nitrophenyl)-2-(pyridin-4-yl)pyrimidin-4-amine], the half-inhibitory concentration (IC50) was determined as 16.9 µM.

Take `Cc1nc(NCCCn2ccnc2)cc(-c2ccc3ncccc3c2)n1` [Example 31, N-(3-(1H-imidazol-1-yl)propyl)-2-methyl-6-(quinolin-6-yl)pyrimidin-4-amine]: the IC50 was 31.4 µM and the affinity, expressed as Ki, was 3.56 µM.

Compound `Cc1ccc(-c2cc(NCCCn3ccnc3)nc(-c3ccccc3)n2)cc1` [Example 9, N-(3-(1H-imidazol-1-yl)propyl)-2-phenyl-6-p-tolylpyrimidin-4-amine] returned an IC50 of 14.4 µM.

`Cc1ccc(-c2cc(NCCCn3ccnc3)nc(C)n2)cc1` [Example 5, N-(3-(1H-imidazol-1-yl)propyl)-2-methyl-6-p-tolylpyrimidin-4-amine] displayed a half-maximal inhibitory concentration (IC50) of 13.3 µM and a Ki of 3.52 µM.

`c1ccc(-c2nc(NCCCn3ccnc3)cc(C34CC5CC(CC(C5)C3)C4)n2)cc1` [Example 14, N-(3-(1H-imidazol-1-yl)propyl)-6-(adamant-1-yl)-2-phenylpyrimidin-4-amine] yielded a concentration for half-maximal inhibition (IC50) of 116 µM.

With `Cc1cc(NCCCn2ccnc2)nc(-c2ccccc2)n1` [Example 1, N-(3-(1H-imidazol-1-yl)propyl)-6-methyl-2-phenylpyrimidin-4-amine], the midpoint of inhibition, the IC50, lay at 47.8 µM and the Ki was found to be 18 µM.

Take `c1ccc(-c2nc(Nc3ccc4nc[nH]c4c3)cc(-c3ccc4ncccc4c3)n2)cc1` [Example 30, N-(2-phenyl-6-(quinolin-6-yl)pyrimidin-4-yl)-3H-benzo[d]imidazol-5-amine]: 100 µM corresponded to half-maximal inhibition (IC50).

In turn, `Cc1nc(NCCCn2ccnc2)cc(-c2ccccc2)n1` [Example 3, N-(3-(1H-imidazol-1-yl)propyl)-2-methyl-6-phenylpyrimidin-4-amine] had an IC50 of 28.1 µM and a Ki of 4.6 µM.

Turning to `COc1ccccc1-c1cc(NCCCn2ccnc2)nc(-c2ccncc2)n1` [Example 26, N-(3-(1H-imidazol-1-yl)propyl)-6-(2-methoxyphenyl)-2-(pyridin-4-yl)pyrimidin-4-amine], the IC50 is 8.18 µM and the affinity, expressed as Ki, was 0.83 µM.

Compound `O=[N+]([O-])c1ccc(-c2cc(NCCCn3ccnc3)nc(-c3ccccc3)n2)cc1` [Example 10, N-(3-(1H-imidazol-1-yl)propyl)-6-(4-nitrophenyl)-2-phenylpyrimidin-4-amine] displayed a 50% inhibitory concentration (IC50) of 12.4 µM.

In turn, `Cc1ccc(-c2cc(NCCCn3ccnc3)nc(-c3ccncc3)n2)cc1` [Example 25, N-(3-(1H-imidazol-1-yl)propyl)-2-(pyridin-4-yl)-6-p-tolylpyrimidin-4-amine] registered an IC50 of 30.6 µM.
